{"source": "patent US20070128217A1", "about": "(priority 2003, published 2007)", "key": {"[1]": {"system": "antibodies in sera from SARS patients (sera 1a, 1b, 2, 6, 37, 62, London, SARS-yellow, SARS-green)", "assay_type": "binding, human", "parameters": "Binding of serum 6 to linear peptides of protein X1 of SARS-CoV Urbani / Binding of serum 37 to linear peptides of protein X1 of SARS-CoV Urbani / Binding of serum 6 to looped/cyclic peptide (PEPSCAN-ELISA) / Binding of serum 37 to looped/cyclic peptide (PEPSCAN-ELISA) / Binding of serum 37 to looped/cyclic peptides of protein X1 of SARS-CoV Urbani / Binding of serum 6 to linear peptides of protein X2 / Binding of serum 37 to linear peptides of protein X2 / Binding of serum 37 to looped/cyclic peptides of protein X2 of SARS-CoV Urbani / Binding of serum 6 to linear peptides of protein M of SARS-CoV Urbani / Binding of serum 37 to linear peptides of protein M of SARS-CoV Urbani / Binding of serum 6 to looped/cyclic peptides of protein M of SARS-CoV Urbani / Binding of serum 37 to looped/cyclic peptides of protein M of SARS-CoV Urbani / Binding of serum 6 to linear peptides of protein X3 of SARS-CoV Urbani / Binding of serum 37 to linear peptides of protein X3 of SARS-CoV Urbani / Binding of serum 37 to looped/cyclic peptides of protein X3 of SARS-CoV Urbani / Binding of serum 6 to linear peptides of protein X4 of SARS-CoV Urbani / Binding of serum 37 to linear peptides of protein X4 of SARS-CoV Urbani / Binding of serum 37 to looped/cyclic peptides of protein X4 of SARS-CoV Urbani / Binding of serum 6 to linear peptides of protein X5 of SARS-CoV Urbani / Binding of serum 37 to linear peptides of protein X5 of SARS-CoV Urbani / Binding of serum 37 to looped/cyclic peptides of protein X5 of SARS-CoV Urbani / Binding of serum 6 to linear peptides of protein N of SARS-CoV Urbani / Binding of serum 37 to linear peptides of protein N of SARS-CoV Urbani / Binding of serum 6 to linear peptide (PEPSCAN-ELISA) / Binding of serum 1a to looped/cyclic peptides of protein N of SARS-CoV Urbani / Binding of serum 1b to looped/cyclic peptides of protein N of SARS-CoV Urbani / Binding of serum 2 to looped/cyclic peptides of protein N of SARS-CoV Urbani / Binding of serum 6 to looped/cyclic peptides of protein N of SARS-CoV Urbani / Binding of serum 37 to looped/cyclic peptides of protein N of SARS-CoV Urbani / Binding of serum 62 to looped/cyclic peptides of protein N of SARS-CoV Urbani / Binding of serum London to looped/cyclic peptides of protein N of SARS-CoV Urbani / Binding of serum SARS-green to looped/cyclic peptides of protein N of SARS-CoV Urbani: unit not given here"}, "[2]": {"system": "control sera (pooled serum of ten healthy LUMC hospital workers; commercial negative donor pooled serum from the Dutch bloodbank)", "assay_type": "binding, human", "parameters": "Binding of Control serum LUMC to linear peptides / Binding of Control serum Blood-bank to linear peptides / Binding of Control serum LUMC to looped peptides / Binding of Control Serum Blood-Bank to Looped peptides / Binding of Control serum LUMC to linear peptides of the protein M of SARS-CoV Urbani / Binding of Control serum Blood-bank to linear peptides of the protein M of SARS-CoV Urbani / Binding of Control serum LUMC to looped peptides of the protein M of SARS-CoV Urbani / Binding of Control Serum Blood-Bank to Looped peptides of the protein M of SARS-CoV Urbani: unit not given here"}, "[3]": {"system": "rabbit serum obtained by immunizing a rabbit with the SARS-CoV strain Frankfurt 1", "assay_type": "binding", "parameters": "Binding of a rabbit serum to linear peptides / Binding of a rabbit serum to looped peptides / Rabbit serum linear peptides / Rabbit serum looped peptides / Binding of a rabbit serum to linear peptides of protein N of SARS-CoV Urbani (Rabbit serum linear peptides) / Binding of a rabbit serum to looped/cyclic peptides of protein N of SARS-CoV Urbani (Rabbit serum looped peptides): unit not given here"}}}
{"sequence": "MCKYTQSTALQELLI", "values": [{"measurement": "Binding of serum 1a to linear peptides of protein X2", "setting": "[1]", "value": 0.8}, {"measurement": "Binding of serum 1a to looped/cyclic peptides of protein X2 of SARS-CoV Urbani", "setting": "[1]", "value": 0.6}, {"measurement": "Binding of serum 1b to linear peptides of protein X2", "setting": "[1]", "value": 0.7}, {"measurement": "Binding of serum 1b to looped/cyclic peptides of protein X2 of SARS-CoV Urbani", "setting": "[1]", "value": 0.6}, {"measurement": "Binding of serum 2 to linear peptides of protein X2", "setting": "[1]", "value": 0.6}, {"measurement": "Binding of serum 2 to looped/cyclic peptides of protein X2 of SARS-CoV Urbani", "setting": "[1]", "value": 0.5}, {"measurement": "Binding of serum 6 to linear peptides of protein X2", "setting": "[1]", "value": 0.5}, {"measurement": "Binding of serum 6 to looped/cyclic peptides of protein X2 of SARS-CoV Urbani", "setting": "[1]", "value": 0.3}, {"measurement": "Binding of serum 37 to linear peptides of protein X2", "setting": "[1]", "value": 0.6}, {"measurement": "Binding of serum 37 to looped/cyclic peptides of protein X2 of SARS-CoV Urbani", "setting": "[1]", "value": 0.7}, {"measurement": "Binding of serum 62 to linear peptides of protein X2", "setting": "[1]", "value": 0.8}, {"measurement": "Binding of serum 62 to looped/cyclic peptides of protein X2 of SARS-CoV Urbani", "setting": "[1]", "value": 0.8}, {"measurement": "Binding of serum London to linear peptides of protein X2", "setting": "[1]", "value": 0.5}, {"measurement": "Binding of serum London to looped/cyclic peptides of protein X2 of SARS-CoV Urbani", "setting": "[1]", "value": 0.2}, {"measurement": "Binding of serum SARS-green to linear peptides of protein X2", "setting": "[1]", "value": 0.8}, {"measurement": "Binding of serum SARS-green to looped/cyclic peptides of protein X2 of SARS-CoV Urbani", "setting": "[1]", "value": 0.7}, {"measurement": "Binding of serum SARS-yellow to linear peptides of protein X2", "setting": "[1]", "value": 0.7}, {"measurement": "Binding of serum SARS-yellow to looped/cyclic peptides of protein X2 of SARS-CoV Urbani", "setting": "[1]", "value": 0.4}, {"measurement": "Binding of Control Serum Blood-Bank to Looped peptides", "setting": "[2]", "value": 0.8}, {"measurement": "Binding of Control serum Blood-bank to linear peptides", "setting": "[2]", "value": 0.9}, {"measurement": "Binding of Control serum LUMC to linear peptides", "setting": "[2]", "value": 0.7}, {"measurement": "Binding of Control serum LUMC to looped peptides", "setting": "[2]", "value": 0.7}, {"measurement": "Binding of a rabbit serum to linear peptides", "setting": "[3]", "value": 0.2}, {"measurement": "Binding of a rabbit serum to looped peptides", "setting": "[3]", "value": 0.4}]}
{"sequence": "MCLKILVRYNTRGNT", "values": [{"measurement": "Binding of serum 1a to linear peptides of protein X5 of SARS-CoV Urbani", "setting": "[1]", "value": 0.8}, {"measurement": "Binding of serum 1a to looped/cyclic peptides of protein X5 of SARS-CoV Urbani", "setting": "[1]", "value": 0.5}, {"measurement": "Binding of serum 1b to linear peptides of protein X5 of SARS-CoV Urbani", "setting": "[1]", "value": 0.6}, {"measurement": "Binding of serum 1b to looped/cyclic peptides of protein X5 of SARS-CoV Urbani", "setting": "[1]", "value": 0.3}, {"measurement": "Binding of serum 2 to linear peptides of protein X5 of SARS-CoV Urbani", "setting": "[1]", "value": 0.8}, {"measurement": "Binding of serum 2 to looped/cyclic peptides of protein X5 of SARS-CoV Urbani", "setting": "[1]", "value": 0.5}, {"measurement": "Binding of serum 6 to linear peptides of protein X5 of SARS-CoV Urbani", "setting": "[1]", "value": 1.4}, {"measurement": "Binding of serum 6 to looped/cyclic peptides of protein X5 of SARS-CoV Urbani", "setting": "[1]", "value": 0.4}, {"measurement": "Binding of serum 37 to linear peptides of protein X5 of SARS-CoV Urbani", "setting": "[1]", "value": 0.9}, {"measurement": "Binding of serum 37 to looped/cyclic peptides of protein X5 of SARS-CoV Urbani", "setting": "[1]", "value": 0.5}, {"measurement": "Binding of serum 62 to linear peptides of protein X5 of SARS-CoV Urbani", "setting": "[1]", "value": 0.9}, {"measurement": "Binding of serum 62 to looped/cyclic peptides of protein X5 of SARS-CoV Urbani", "setting": "[1]", "value": 0.7}, {"measurement": "Binding of serum London to linear peptides of protein X5 of SARS-CoV Urbani", "setting": "[1]", "value": 0.8}, {"measurement": "Binding of serum London to looped/cyclic peptides of protein X5 of SARS-CoV Urbani", "setting": "[1]", "value": 0.4}, {"measurement": "Binding of serum SARS-green to linear peptides of protein X5 of SARS-CoV Urbani", "setting": "[1]", "value": 0.9}, {"measurement": "Binding of serum SARS-green to looped/cyclic peptides of protein X5 of SARS-CoV Urbani", "setting": "[1]", "value": 0.2}, {"measurement": "Binding of serum SARS-yellow to linear peptides of protein X5 of SARS-CoV Urbani", "setting": "[1]", "value": 0.7}, {"measurement": "Binding of serum SARS-yellow to looped/cyclic peptides of protein X5 of SARS-CoV Urbani", "setting": "[1]", "value": 0.8}, {"measurement": "Binding of Control Serum Blood-Bank to Looped peptides", "setting": "[2]", "value": 0.4}, {"measurement": "Binding of Control serum Blood-bank to linear peptides", "setting": "[2]", "value": 0.8}, {"measurement": "Binding of Control serum LUMC to linear peptides", "setting": "[2]", "value": 0.6}, {"measurement": "Binding of Control serum LUMC to looped peptides", "setting": "[2]", "value": 0.5}, {"measurement": "Rabbit serum linear peptides", "setting": "[3]", "value": 0.7}, {"measurement": "Rabbit serum looped peptides", "setting": "[3]", "value": 0.5}]}
